Measurements taken from PubChem BioAssay (NCI).
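A five-concentration, 48-hour dose response in 96-well plates underlies each endpoint, interpolated linearly between surrounding concentrations. The concentration for 50% growth inhibition is given as GI50. TGI: total growth inhibition.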

Assays:
Assay in all cases: NCI-60 cell line screen, 48 h
[1] = tested on: CCRF-CEM leukemia
[2] = tested on: MDA-MB-231 breast
[3] = tested on: KM12 colon
[4] = tested on: HOP-92 NSCLC
[5] = tested on: SN12C renal
[6] = tested on: SK-MEL-2 melanoma
[7] = tested on: NCI-H23 lung
[8] = tested on: SNB-75 CNS
[9] = tested on: HCT-116 colon
[10] = tested on: OVCAR-4 ovarian
[11] = tested on: TK-10 renal
[12] = tested on: SF-268 CNS
[13] = tested on: SK-OV-3 ovarian
[14] = tested on: MDA-MB-435
[15] = tested on: SF-295 CNS
[16] = tested on: ACHN renal
[17] = tested on: HCC-2998 colon
[18] = tested on: PC-3 prostate
[19] = tested on: A498 renal
[20] = tested on: UACC-62 melanoma
[21] = tested on: UACC-257 melanoma
[22] = tested on: EKVX NSCLC
[23] = tested on: RXF 393 renal
[24] = tested on: A549 NSCLC
[25] = tested on: 786-0 renal
[26] = tested on: SW-620 colon
[27] = tested on: SF-539 CNS
[28] = tested on: COLO 205 colon
[29] = tested on: NCI-H522 lung
[30] = tested on: SR leukemia
[31] = tested on: NCI-H226 lung
[32] = tested on: OVCAR-8 ovarian
[33] = tested on: CAKI-1 renal
[34] = tested on: M14 melanoma
[35] = tested on: HS 578T breast
[36] = tested on: RPMI-8226 leukemia
[37] = tested on: MCF7 breast
[38] = tested on: DU-145 prostate
[39] = tested on: OVCAR-3 ovarian
[40] = tested on: IGROV1 ovarian
[41] = tested on: SK-MEL-28 melanoma
[42] = tested on: MALME-3M melanoma
[43] = tested on: T-47D breast
[44] = tested on: HT29 colon
[45] = tested on: HL-60(TB) leukemia
[46] = tested on: HCT-15 colon
[47] = tested on: SNB-19 CNS
[48] = tested on: K-562 leukemia
[49] = tested on: NCI/ADR-RES ovarian
[50] = tested on: MDA-MB-468 breast
[51] = tested on: BT-549 breast
[52] = tested on: HOP-62 NSCLC
[53] = tested on: UO-31 renal
[54] = tested on: LOX IMVI melanoma
[55] = tested on: U251 CNS
[56] = tested on: SK-MEL-5 melanoma
[57] = tested on: MOLT-4 leukemia
[58] = tested on: OVCAR-5 ovarian
[59] = tested on: NCI-H460 lung

`O=C(N/N=C/c1ccsc1)c1[nH]c2ccc(Br)cc2c1-c1ccccc1` was tested, and the GI50 [1] was 228 nM, the TGI [1] was 21700 nM and the GI50 [2] was 792 nM. For the same molecule, the TGI [2] was 13100 nM, the GI50 [3] was 327 nM and the TGI [3] was 14100 nM. The GI50 [4] was 2440 nM, the TGI [4] was 25000 nM and the GI50 [5] was 473 nM. The TGI [5] was 12500 nM, the GI50 [6] was 764 nM and the TGI [6] was 20000 nM. The GI50 [7] was 696 nM, the TGI [7] was 18900 nM and the GI50 [8] was 234 nM. It also gave a TGI [8] of 21500 nM, a GI50 [9] of 190 nM and a TGI [9] of 4410 nM. For the same molecule, the GI50 [10] was 6100 nM, the TGI [10] was > 66600 nM and the GI50 [11] was 13500 nM. It also gave a TGI [11] of 85000 nM, a GI50 [12] of 817 nM and a TGI [12] of 17900 nM. For the same molecule, the GI50 [13] was 2050 nM, the TGI [13] was 27200 nM and the GI50 [14] was 76.4 nM. It also gave a TGI [14] of 525 nM, a GI50 [15] of 189 nM and a TGI [15] of 13800 nM. For the same molecule, the GI50 [16] was 585 nM, the TGI [16] was 27700 nM and the GI50 [17] was 399 nM. The TGI [17] was 13000 nM, the GI50 [18] was 612 nM and the TGI [18] was 24000 nM. The GI50 [19] was 19500 nM, the TGI [19] was 46500 nM and the GI50 [20] was 299 nM. For the same molecule, the TGI [20] was 16000 nM, the GI50 [21] was 6930 nM and the TGI [21] was 41300 nM. The GI50 [22] was 872 nM, the TGI [22] was 29300 nM and the GI50 [23] was 287 nM. The TGI [23] was 26700 nM, the GI50 [24] was 460 nM and the TGI [24] was > 100000 nM. It also gave a GI50 [25] of 509 nM, a TGI [25] of 17700 nM and a GI50 [26] of 204 nM. For the same molecule, the TGI [26] was 19100 nM, the GI50 [27] was 190 nM and the TGI [27] was 943 nM. It also gave a GI50 [28] of 353 nM, a TGI [28] of 1970 nM and a GI50 [29] of 163 nM. The TGI [29] was 699 nM, the GI50 [30] was 255 nM and the TGI [30] was 63500 nM. For the same molecule, the GI50 [31] was 1750 nM, the TGI [31] was 27600 nM and the GI50 [32] was 313 nM. For the same molecule, the TGI [32] was 10300 nM, the GI50 [33] was 315 nM and the TGI [33] was 25000 nM. It also gave a GI50 [34] of 267 nM, a TGI [34] of 13100 nM and a GI50 [35] of 202 nM. The TGI [35] was 13200 nM, the GI50 [36] was 236 nM and the TGI [36] was 16600 nM. For the same molecule, the GI50 [37] was 132 nM, the TGI [37] was 13400 nM and the GI50 [38] was 435 nM. The TGI [38] was 32900 nM, the GI50 [39] was 202 nM and the TGI [39] was 12600 nM. For the same molecule, the GI50 [40] was 600 nM, the TGI [40] was 15600 nM and the GI50 [41] was 4190 nM. For the same molecule, the TGI [41] was 22600 nM, the GI50 [42] was 6990 nM and the TGI [42] was 26100 nM. It also gave a GI50 [43] of 3120 nM, a TGI [43] of 48500 nM and a GI50 [44] of 272 nM. It also gave a TGI [44] of 4750 nM, a GI50 [45] of 199 nM and a TGI [45] of 656 nM. The GI50 [46] was 256 nM, the TGI [46] was 12800 nM and the GI50 [47] was 1840 nM. For the same molecule, the TGI [47] was 66400 nM, the GI50 [48] was 103 nM and the TGI [48] was > 44000 nM. It also gave a GI50 [49] of 173 nM, a TGI [49] of 549 nM and a GI50 [50] of 255 nM. It also gave a TGI [50] of 3890 nM, a GI50 [51] of 317 nM and a TGI [51] of 1950 nM. The GI50 [52] was 512 nM, the TGI [52] was 18100 nM and the GI50 [53] was 578 nM. The TGI [53] was 24200 nM, the GI50 [54] was 217 nM and the TGI [54] was 13300 nM. The GI50 [55] was 724 nM, the TGI [55] was 18900 nM and the GI50 [56] was 260 nM. The TGI [56] was 1830 nM, the GI50 [57] was 386 nM and the TGI [57] was 18400 nM. For the same molecule, the GI50 [58] was 563 nM, the TGI [58] was 22500 nM and the GI50 [59] was 156 nM. It also gave a TGI [59] of 10600 nM.
